Blank lines part the entries; values can stand above or below the compound they belong to.
What was measured:
P-gp [1] = experiment: Sensitivity of [3H]vinblastine binding to DMSO; design: species or system mouse
Excerpt: (§1) The two murine proteins share 84% amino acid identity, although the linker region which contains several sites for phosphorylation by protein kinase C (PKC) is the least conserved region between the two isoforms (Devault and Gros, 1990). […] P-gp1a is expressed at high levels in the intestine, liver and testis, and also in the lung and brain where it is thought to contribute to the blood-brain barrier (Schinkel et al, 1994). In contrast, P-gp1b is expressed in tissues associated with steroid biosynthesis and distribution, such as the adrenal gland and ovary, and is induced specifically in the uterus during pregnancy (Arceci et al, 1988; Trezise et al, 1992). The steroid hormone progesterone increases during pregnancy, and the mdr1b gene, but not the mdr1a gene, is regulated by a progesterone response element in its promoter (Piekarz et al, 1993). Direct evidence that the P-gp1b isoform can transport steroids comes from the observation that disruption of the mdr1b gene in mouse adrenal cells is associated with decreased adrenocorticotropic hormone-stimulated steroid secre- tion (Altuvia et al, 1993). […] More specifically, progesterone inhibits vinblastine binding and azidopine photolabelling of both of the mouse P-gp isoforms in vitro (Yang et al, 1990), showing that both isoforms are capable of interacting with steroids. […]

P-gp [2] = experiment: Binding of [3H]progesterone to P-gp; design: species or system mouse; conditions: data not shown
Excerpt: as §1

P-gp1a [3] = biological target: T1, P-gp1a (Mus musculus, UniProt P21447); experiment: Equilibrium (saturation) binding of [3H]vinblastine to LR73-1a plasma membranes, rapid filtration; conditions: LR73-1a membranes, mean s.e.m.
T1 construct: expressed in transfected cells; host or cells: Chinese hamster ovary LR73 cells (LR73-1a), plasma membrane fraction
T1 sequence (P21447 whole entry): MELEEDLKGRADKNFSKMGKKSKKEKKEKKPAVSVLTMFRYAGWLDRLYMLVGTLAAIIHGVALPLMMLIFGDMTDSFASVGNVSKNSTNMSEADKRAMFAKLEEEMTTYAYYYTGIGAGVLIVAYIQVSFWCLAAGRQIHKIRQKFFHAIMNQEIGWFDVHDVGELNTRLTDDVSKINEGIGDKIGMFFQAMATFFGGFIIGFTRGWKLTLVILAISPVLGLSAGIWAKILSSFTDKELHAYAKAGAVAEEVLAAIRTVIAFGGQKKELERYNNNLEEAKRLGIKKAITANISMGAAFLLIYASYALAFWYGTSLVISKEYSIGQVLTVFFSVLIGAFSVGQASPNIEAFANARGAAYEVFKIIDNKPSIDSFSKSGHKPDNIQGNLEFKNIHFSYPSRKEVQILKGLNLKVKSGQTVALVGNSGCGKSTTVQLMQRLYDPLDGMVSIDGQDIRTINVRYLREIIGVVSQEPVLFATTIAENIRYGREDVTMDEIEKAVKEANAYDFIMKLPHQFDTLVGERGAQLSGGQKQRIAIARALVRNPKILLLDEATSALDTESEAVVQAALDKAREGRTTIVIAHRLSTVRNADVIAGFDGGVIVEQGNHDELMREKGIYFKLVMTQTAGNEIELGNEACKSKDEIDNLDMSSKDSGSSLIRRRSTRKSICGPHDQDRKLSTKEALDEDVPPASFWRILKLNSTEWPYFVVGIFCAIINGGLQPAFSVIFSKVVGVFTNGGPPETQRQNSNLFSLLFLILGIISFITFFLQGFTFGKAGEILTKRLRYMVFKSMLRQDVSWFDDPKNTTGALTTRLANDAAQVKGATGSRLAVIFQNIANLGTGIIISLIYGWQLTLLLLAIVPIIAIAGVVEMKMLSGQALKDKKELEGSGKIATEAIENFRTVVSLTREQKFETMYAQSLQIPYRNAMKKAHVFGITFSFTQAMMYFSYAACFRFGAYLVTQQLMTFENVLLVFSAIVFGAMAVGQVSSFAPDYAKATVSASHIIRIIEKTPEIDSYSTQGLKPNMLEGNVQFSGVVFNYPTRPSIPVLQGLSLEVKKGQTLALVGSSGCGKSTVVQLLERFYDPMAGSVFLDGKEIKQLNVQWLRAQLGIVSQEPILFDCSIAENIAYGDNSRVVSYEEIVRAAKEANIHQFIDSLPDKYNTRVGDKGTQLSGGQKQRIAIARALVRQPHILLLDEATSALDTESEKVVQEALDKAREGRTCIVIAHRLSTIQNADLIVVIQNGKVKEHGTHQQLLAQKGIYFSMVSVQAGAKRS
Excerpt: as §1

P-gp1b [4] = biological target: T2, P-gp1b (Mus musculus, UniProt P06795); experiment: Equilibrium (saturation) binding of [3H]vinblastine to LR73-1b plasma membranes, rapid filtration
T2 construct: expressed in transfected cells; host or cells: Chinese hamster ovary LR73 cells (LR73-1b), plasma membrane fraction
T2 sequence (P06795 whole entry): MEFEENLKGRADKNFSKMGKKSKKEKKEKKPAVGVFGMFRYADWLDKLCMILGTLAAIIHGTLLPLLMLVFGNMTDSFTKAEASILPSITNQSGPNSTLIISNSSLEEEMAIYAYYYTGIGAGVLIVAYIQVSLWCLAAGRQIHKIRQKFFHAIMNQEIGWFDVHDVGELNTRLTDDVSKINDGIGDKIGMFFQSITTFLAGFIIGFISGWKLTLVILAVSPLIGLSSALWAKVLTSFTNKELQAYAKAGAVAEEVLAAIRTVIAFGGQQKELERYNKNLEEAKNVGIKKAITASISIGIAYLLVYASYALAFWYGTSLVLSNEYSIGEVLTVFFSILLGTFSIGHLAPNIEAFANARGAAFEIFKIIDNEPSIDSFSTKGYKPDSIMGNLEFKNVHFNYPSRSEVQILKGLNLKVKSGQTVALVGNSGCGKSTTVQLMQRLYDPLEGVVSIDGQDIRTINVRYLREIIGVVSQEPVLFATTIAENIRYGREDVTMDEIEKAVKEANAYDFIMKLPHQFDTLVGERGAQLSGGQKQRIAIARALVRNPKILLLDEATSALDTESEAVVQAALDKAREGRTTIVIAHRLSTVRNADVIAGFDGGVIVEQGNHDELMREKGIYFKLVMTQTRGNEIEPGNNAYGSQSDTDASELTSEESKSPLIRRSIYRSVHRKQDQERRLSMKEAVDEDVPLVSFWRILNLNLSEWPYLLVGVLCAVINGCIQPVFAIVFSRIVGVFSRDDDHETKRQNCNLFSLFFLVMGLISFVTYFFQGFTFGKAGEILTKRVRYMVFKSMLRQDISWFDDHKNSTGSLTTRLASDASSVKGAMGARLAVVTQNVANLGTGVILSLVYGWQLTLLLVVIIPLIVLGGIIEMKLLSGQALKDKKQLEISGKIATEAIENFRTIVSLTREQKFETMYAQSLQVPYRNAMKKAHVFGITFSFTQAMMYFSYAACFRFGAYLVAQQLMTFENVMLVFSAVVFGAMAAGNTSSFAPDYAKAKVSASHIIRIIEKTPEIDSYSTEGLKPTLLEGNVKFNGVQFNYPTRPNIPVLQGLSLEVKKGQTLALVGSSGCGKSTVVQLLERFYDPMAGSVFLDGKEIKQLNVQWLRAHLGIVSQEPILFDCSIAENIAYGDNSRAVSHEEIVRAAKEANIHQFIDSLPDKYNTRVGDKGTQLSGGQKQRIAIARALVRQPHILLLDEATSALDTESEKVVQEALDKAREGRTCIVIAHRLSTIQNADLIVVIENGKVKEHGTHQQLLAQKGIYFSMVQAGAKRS
Excerpt: (§2) The two murine proteins share 84% amino acid identity, although the linker region which contains several sites for phosphorylation by protein kinase C (PKC) is the least conserved region between the two isoforms (Devault and Gros, 1990). […] P-gp1a is expressed at high levels in the intestine, liver and testis, and also in the lung and brain where it is thought to contribute to the blood-brain barrier (Schinkel et al, 1994). In contrast, P-gp1b is expressed in tissues associated with steroid biosynthesis and distribution, such as the adrenal gland and ovary, and is induced specifically in the uterus during pregnancy (Arceci et al, 1988; Trezise et al, 1992). The steroid hormone progesterone increases during pregnancy, and the mdr1b gene, but not the mdr1a gene, is regulated by a progesterone response element in its promoter (Piekarz et al, 1993). Direct evidence that the P-gp1b isoform can transport steroids comes from the observation that disruption of the mdr1b gene in mouse adrenal cells is associated with decreased adrenocorticotropic hormone-stimulated steroid secre- tion (Altuvia et al, 1993). […] More specifically, progesterone inhibits vinblastine binding and azidopine photolabelling of both of the mouse P-gp isoforms in vitro (Yang et al, 1990), showing that both isoforms are capable of interacting with steroids. However, if the distinct tissue-specific patterns of expression of P-gp1a and P-gp1b reflect differences in function related to steroid transport, it is important to show directly that the two proteins are functionally distinct. […] Summary The gene encoding the multidrug resistance P-glycoprotein (P-gp) is duplicated in rodent species and the functional basis for this remains unresolved. […] In the present study possible biochemical differences between the isoforms were directly investigated at the level of drug interaction. […]

P-gp1a [5] = biological target: T1, P-gp1a; experiment: Association kinetics of [3H]vinblastine binding to LR73-1a membranes
Excerpt: as §2

P-gp1b [6] = biological target: T2, P-gp1b; experiment: Association kinetics of [3H]vinblastine binding to LR73-1b membranes
Excerpt: as §2

[7] = [3H]vinblastine binding to LR73 membranes that do not express P-gp; design: species or system Chinese hamster; conditions: data not shown
Excerpt: as §1

P-gp1a [8] = biological target: T1, P-gp1a; experiment: Displacement of equilibrium [3H]vinblastine binding, LR73-1a membranes
Excerpt: as §1

P-gp1b [9] = biological target: T2, P-gp1b; experiment: Displacement of equilibrium [3H]vinblastine binding, LR73-1b membranes
Excerpt: as §1

[10] = test system: drug-sensitive cells (LR73); experiment: Vinblastine sensitivity of drug-sensitive cells in culture; assay type: cell-based, Chinese hamster; conditions: Cricetulus griseus
Excerpt: as §1

[11] = test system: Drug-resistant lines (LR73-1a, LR73-1b); experiment: Maximal vinblastine resistance level of drug-resistant lines in culture; assay type: cell-based, Chinese hamster; conditions: Cricetulus griseus, read-out: EC50, maximal resistance level of the cells
Excerpt: as §1

EC50 on [3H]vinblastine binding (P-gp [1]): 2.5 % (v/v)
Structure (SMILES): C[S+](C)[O-] [DMSO, dimethylsulphoxide]

Structure (SMILES): CC(=O)[C@H]1CC[C@H]2[C@@H]3CCC4=CC(=O)CC[C@]4(C)[C@H]3CC[C@]12C [[3H]progesterone]
binding characteristics to P-gp (P-gp [2]): poor affinity, low specific binding

Structure (SMILES): CC[C@]1(O)C[C@@H]2CN(CCc3c([nH]c4ccccc34)[C@@](C(=O)OC)(c3cc4c(cc3OC)N(C)[C@H]3[C@@](O)(C(=O)OC)[C@H](OC(C)=O)[C@]5(CC)C=CCN6CC[C@]43[C@@H]65)C2)C1 [[3H]vinblastine]
Kd (P-gp1a [3]; equilibrium, read-out: Kd, affinity of [3H]vinblastine binding): 32.9 nM | Bmax, density of specific binding sites (P-gp1a [3]): 24.5 2.9 pmol mg-1 | Bmax (P-gp1b [4]; Figure 2, single representative experiment): 8.6 1.4 pmol mg-1 | Kd (P-gp1b [4]; LR73-1b membranes, equilibrium, mean s.e.m., read-out: Kd, affinity of [3H]vinblastine binding): 30.7 nM | Bmax, density of specific binding sites (P-gp1b [4]; LR73-1b membranes, mean s.e.m.): 14.1 2.9 pmol mg-1 | association rate constant (k+1) (P-gp1a [5]; LR73-1a membranes, 15-20 nM [3H]vinblastine): 0.002 0.0005 min-1 nM-1 | rate constant of [3H]vinblastine dissociation (k-1) (P-gp1a [5]; LR73-1a membranes, derived from Figure 3): 0.07 0.02 min-1 | Kd (P-gp1a [5]; P-gp1a, read-out: Estimate of dissociation constant (Kd = k-1/k+1) using the kinetic data): 35 nM | association rate constant (k+1) (P-gp1b [6]; LR73-1b membranes, 15-20 nM [3H]vinblastine): 0.002 0.0006 min-1 nM-1 | rate constant of [3H]vinblastine dissociation (k-1) (P-gp1b [6]; LR73-1b membranes, derived from Figure 3): 0.11 0.02 min-1 | Kd (P-gp1b [6]; P-gp1b, read-out: Estimate of dissociation constant (Kd = k-1/k+1) using the kinetic data): 55 nM | specific binding [7]: did not bind specifically

Structure (SMILES): CC(=O)[C@H]1CC[C@H]2[C@@H]3CCC4=CC(=O)CC[C@]4(C)[C@H]3CC[C@]12C [progesterone]
Ki (P-gp1a [8]): 1900 nM | Ki (P-gp1b [9]): 1800 nM

Structure (SMILES): CC[C@]1(O)C[C@@H]2CN(CCc3c([nH]c4ccccc34)[C@@](C(=O)OC)(c3cc4c(cc3OC)N(C)[C@H]3[C@@](O)(C(=O)OC)[C@H](OC(C)=O)[C@]5(CC)C=CCN6CC[C@]43[C@@H]65)C2)C1 [vinblastine sulphate, Vinblastine sulphate]
EC50 [10]: 0.01 µg/mL | EC50 [11]: 0.2 to 0.25 µg/mL

— paper PMC2374293, “The equilibrium and kinetic drug binding properties of the mouse P-gp1a and P-gp1b P-glycoproteins are similar” (British Journal of Cancer, 1999)
